Results as given in patent publication US20230181537A1, “Translation Blockers Repurposed for COVID-19 Therapy” (priority 2020, published 2023).

Key:
[1] = tested on: SARS-CoV-2 USA-WA1/2020; format: cell-based; conditions: for viral infectivity (plaque assay): Vero-E6, MOI 0.0002, drug at 1 uM; for anti-viral activity against CoV2 infection of Vero-C6 cells: Vero-C6 (African green monkey kidney cells), dose response; for viral infectivity (number of plaques): Vero-E6, MOI 0.0001 or 0.0002, drugs added after infection at 1 uM and 10 uM
[2] = tested on: APP 5′UTR; assay: High-throughput transfection-based APP 5′UTR luciferase reporter assay in SH-SY5Y cells; format: cell-based; conditions: high-throughput screen
[3] = tested on: APP 5′UTR / IRP1; conditions: refs [25,27]; cited from earlier work
[4] = tested on: APP mRNA; conditions: refs [25,27]; cited from earlier work
[5] = tested on: SARS-CoV-2; assay: Anti-viral efficacy assay by immunocytochemical fluorescence in infected Vero E6 cells; format: cell-based
From the text: 9A: Typical anti-viral efficacy assays conducted for the top COVID-19 inhibitors from a range of APP 5′UTR-directed inhibitors. In this exemplary case, Vero E6 cells were infected with SARS-CoV-2 at a multiplicity of infection of 0.1 and treated either with DMSO (negative control) or compound at the indicated concentrations. At 2 days post infection, cells were fixed and stained with an antibody against SARS-CoV-2 nucleocapsid protein. Cell nuclei were stained with DAPI. Infection rates quantified using Qupath software. 9B: Densitometric quantitation of JTR-009 dependent inhibition of Spike protein in COVID-19 infected Vero E6 cells (based on levels of Spike immunocytochemistry shown).
Initial virus assays were performed to experimentally test the benzimidazole APP 5′UTR directed translation blocker-9 (JTR-9) (FIG. 9). […] We tested JTR-009 for possible antiviral efficacy potentially via the related the CRRM motifs in the replicase open reading frame (ORF) related to the APP 5′UTR. We employed immunocytochemical fluorescence of Spike Protein as readout for viral infectivity. […] Therapeutic activity is being tested via the two CRRM RNA motifs in the virus replicase (FIG. 9).

SMILES	viral infectivity (plaque assay) [1]	inhibition of APP 5′UTR driven expression of a Luciferase reporter gene [2] [%]	anti-viral activity against CoV2 infection of Vero-C6 cells [1]	viral infectivity (number of plaques) [1]	further results
CCC12C=CCN3CC[C@@]4(c5ccc(OC)cc5N(C)[C@H]4[C@@](O)(C(=O)OC)[C@@H]1OC(C)=O)[C@@H]32 (mixture of isomers) [B1, vindoline]	reduced viral infectivity				
CCCSc1ccc2nc(NC(=O)OC)[nH]c2c1 [Albendazole]		92.2	dose responsive anti-viral activity	inhibited viral infectivity	
COC(=O)Nc1nc2ccc(Sc3ccccc3)cc2[nH]1 [Fenbendazole]		91.5			
Cc1ccc2[nH]c(-c3ccc(N)cc3)nc2c1 [JTR-009]			dose responsive anti-viral activity	inhibited viral infectivity	binding of the APP 5′UTR to its cognate RNA binding protein, IRP1 [3]: prevented binding; APP mRNA translation [4]: reduced APP mRNA translation; inhibition of COVID-19 viral spike protein (densitometric quantitation) ([5]; FIGS. 9A-B): inhibited COVID-19 viral spike protein; COVID-19 infectivity (immunocytochemical fluorescence of Spike Protein as readout) ([5]; MOI 0.1, 2 days post infection): dose-dependently inhibited COVID-19 infectivity
Cc1c(OCC(F)(F)F)ccnc1C[S+]([O-])c1nc2ccccc2[nH]1 (stereo not shown) [Lansoprazole]			dose responsive anti-viral activity	inhibited viral infectivity	
CN1CC[C@]2(C)c3cc(OC(=O)Nc4ccccc4)ccc3N(C)[C@H]12 [Posiphen, posiphen]	reduced viral infectivity				
CC(O)(CCOP(=O)(O)OP(=O)(O)O)CC(=O)O (stereo not drawn) [Syn-516]	reduced viral infectivity				
CCCOc1ccc2nc(NC(=O)OC)[nH]c2c1 [oxibendazole]		85.9			
